Data as given in patent US8404460B2, “Method for detecting and/or identifying Clostridium difficile” (Biomerieux, priority 2008, dated 2013).

Key:
Clostridium difficile [1] = experiment: Example 3: Colombia base media with a chromogenic beta-glucosidase substrate and 300 mg/l ammoniacal iron citrate; assay type: cell-based; design: key to diffusion of the coloration: *: diffusion of trie coloration; settings: Clostridium difficile strains, 48 h; for Co = coloration / Gr = growth: Colombia base, 300 mg/l ammoniacal iron citrate
Clostridium difficile [2] = experiment: Example 2: egg yolk base media each containing a chromogenic beta-glucosidase substrate, growth and coloration of strains; assay type: cell-based; settings: for Co = coloration / Gr = growth: Clostridium difficile strains, 48 h, egg yolk base; for sensitivity with respect to Clostridium difficile: Example 2, 48 h
Other Clostridium = assay type: cell-based, Clostridium spp
[3] = test system: strains other than Clostridium difficile; experiment: Example 5: selectivity of the medium, growth of strains other than Clostridium difficile; assay type: cell-based
Experimental: (§1) 107 strains were tested on two prototype media for C. difficile, the compositions of which are the following (per liter):
(§2) The inoculation is carried out from precultures prepared for 48 h at 37° C. under anaerobic conditions.
(§3) A suspension in physiological saline at 0.5 McF is prepared and then the strains are inoculated using a 10 μl calibrated loop.
(§4) The readings are carried out after incubation for 24 and 48 hours at 37° C.

Clostridium difficile [4] = experiment: Example 5: two prototype media for C. difficile, % of strains producing a coloration; assay type: cell-based
Experimental: as §1, §2, §3, §4

[5] = test system: C. difficile strains 042, 308, 169, 187; experiment: Example 4: five CHE-beta-glucoside media with varying esculin and glucose, colony diameter and coloration strength; assay type: cell-based, Clostridium difficile; settings: Example 4, according to medium 2
Experimental: Five media, each containing 48.10 g/l of Columbia base, 2.5 g/l of sodium taurocholate, 200 mg/l of ammoniacal iron citrate, 100 mg/l of CHE-beta-glucoside, and also an inhibitor system normally used in the media for Clostridium difficile, based on D-cycloserine, and varying concentrations of esculin and glucose (see following table):
as §2, §3
The readings are carried out after incubation for 24 hours at 37° C.
For Growth: • The values indicated correspond to the diameter of the colonies.
For Coloration Strength: • 1 corresponds to the presence of a clear coloration of weak strength, • 1.5 corresponds to the presence of a coloration that is intermediate between colorations 1 and 2, • 2 corresponds to the presence of a clear coloration of medium strength, • 2.5 corresponds to the presence of a coloration that is intermediate between colorations 2 and 3, • 3 corresponds to the presence of a strong coloration.

[6] = substrate 300 mg/l +500 mg/l of ammoniacal iron citrate
[7] = substrate 300 mg/l +50 mg of ammoniacal iron citrate

For “5-bromo-3-indoxyl-β-glucoside [Blue-β-glucoside]”, the “diffusion of the coloration” value (Clostridium difficile [1]; Blue substrate 300 mg/l) was “*”, the “Co = coloration” value (Clostridium difficile [1]; Blue substrate 300 mg/l) was 10/10 and the “Gr = growth” value (Clostridium difficile [1]; Blue substrate 300 mg/l) was 10/10.
With “5-bromo-6-chloro-3-indoxyl-β-glucoside [Magenta-β-glucoside]” the “Co = coloration” value (Clostridium difficile [2]; substrate 80 mg/l) was 16/18, the “Gr = growth” value (Clostridium difficile [2]; substrate 80 mg/l) was 18/28 and the “sensitivity with respect to Clostridium difficile” value (shortened to “sensitivity”) (Clostridium difficile [2]) was “good sensitivity”. For the same compound, the “Co = coloration” value (Other Clostridium) was 6/17 and the “Gr = growth” value (Other Clostridium) was 17/17.
In the case of OC[C@H]1O[C@@H](Oc2cccc3cccnc23)[C@H](O)[C@@H](O)[C@@H]1O [8-Hydroxyquinoline-β-glucoside, 8-hydroxyquinoline-β-glucoside], the “Co = coloration” value (Clostridium difficile [1]; substrate 150 mg/l) was 5/10 and the “Gr = growth” value (Clostridium difficile [1]; substrate 150 mg/l) was 10/10.
O=C1c2ccccc2C(=O)c2c1ccc(O[C@@H]1O[C@H](CO)[C@@H](O)[C@H](O)[C@H]1O)c2O [Alizarin-β-glucoside, 1,2-dihydroxyanthraquinone-β-glucoside] was tested, and the “Co = coloration” value (Clostridium difficile [2]; substrate 50 mg/l) was 18/22, the “Gr = growth” value (Clostridium difficile [2]; substrate 50 mg/l) was 22/28 and the “sensitivity” value (Clostridium difficile [2]) was “good sensitivity”. For the same compound, the “Co = coloration” value (Clostridium difficile [1]; substrate 50 mg/l) was 8/10, the “Gr = growth” value (Clostridium difficile [1]; substrate 50 mg/l) was 10/10 and the “Co = coloration” value (Other Clostridium) was 2/16. The “Gr = growth” value (Other Clostridium) was 16/17.
O=c1oc2cc(O)c(O[C@@H]3O[C@H](CO)[C@@H](O)[C@H](O)[C@H]3O)cc2c2c1CCCC2 [CHE-β-glucoside, 3,4-cyclohexenoesculetin-β-glucoside] was tested, and the “specificity with respect to Clostridium difficile” value [3] was “good specificity”, the “Co = coloration” value (Clostridium difficile [2]; [6]) was 20/21 and the “Gr = growth” value (Clostridium difficile [2]; [6]) was 21/28. The “sensitivity” value (Clostridium difficile [2]) was “good sensitivity”, the “sensitivity” value (Clostridium difficile [4]; Example 5, from 24 h onward) was “good sensitivity” and the “strains of Clostridium difficile revealed” value (Clostridium difficile [4]; from 24 h onward, with a minimum of false positives) was about 90%. The “Co = coloration” value (Other Clostridium) was 6/17 and the “Gr = growth” value (Other Clostridium) was 17/17.
In the case of O=c1ccc2cc(O[C@@H]3O[C@H](CO)[C@@H](O)[C@H](O)[C@H]3O)c(O)cc2o1 [esculin, esculetin-β-glucoside], the “effect on the strength of the coloration” value [5] was “positive effect”.
“dihydroxyflavone-β-glucoside [DHF-β-glucoside]” was tested, and the “Co = coloration” value (Clostridium difficile [2]; [7]) was 20/28, the “Gr = growth” value (Clostridium difficile [2]; [7]) was 28/28 and the “Co = coloration” value (Clostridium difficile [1]; substrate 300 mg/l) was 10/10. For the same compound, the “Gr = growth” value (Clostridium difficile [1]; substrate 300 mg/l) was 10/10, the “Co = coloration” value (Other Clostridium) was 3/12 and the “Gr = growth” value (Other Clostridium) was 12/14.
